US10905691B2, “Use of triazolo(4,5-d)pyrimidine derivatives for prevention and treatment of bacterial infection” (Universite de Liege, priority 2016, dated 2021)
Where two headings read alike, the source gives them in different places.

Tests used:
Type in all cases: cell-based
[1] = system: Glycopeptide intermediate-resistant (GISA) S. aureus Mu-50 (ATCC 700695); experiment: MIC determination (EUCAST, Mueller-Hinton broth); settings: Staphylococcus aureus, ATCC700695
Experimental: (§1) Further experiments were conducted using different strains of S. aureus, as clinically relevant Gram-positive bacterial strains: ATCC 25904, ATCC 6538, methilcillin-resistant S. aureus (MRSA) ATCC BAA-1556, Glycopeptide intermediate-resistant (GISA) S. aureus Mu-50 (ATCC 700695) in order to determine the Minimal Inhibitory Concentration (MIC) which is the minimal concentration required to prevent bacterial growth; the Minimal Bactericidal Concentration (MBC) which determines the lowest concentration at which an antimicrobial agent kill a particular microorganism and a Minimum Duration for killing 99.9% bacteria (MDK99.9) which is a tolerance metric according to the EUCAST.
(§2) MIC determination: A single colony selected from the different strains of S. aureus is resuspended and cultured in the appropriate medium overnight (O/N) in aerobic conditions (37° C. with 220 rpm shaking), next day a 1:100 inoculum in Mueller-Hinton broth (MHB) was incubated in aerobic conditions for 3 hr (OD=0.08-0.1) and an inoculum of 1:300 dilution, corresponding to 3×10^5 CFU/ml, was incubated in presence or absence of different concentrations of Triafluocyl in 1% DMSO. After O/N growth the OD of each culture was measured at 600 nm in a spectrophotometer (OD600). The MIC represents the concentration at which there is no visible growth of bacteria, i.e. ΔOD at 600 nm equal to zero (blank is the medium alone). MIC for Triafluocyl against S. aureus ATCC 25904, ATCC 6538, methilcillin-resistant S. aureus (MRSA) ATCC BAA-1556, Glycopeptide intermediate-resistant (GISA), and S. aureus Mu-50 (ATCC 700695) were 20, 20, 15, and 20 μg/ml, respectively.
(§3) The Minimal Inhibitory Concentration (MIC) and the Minimal Bactericidal Concentration (MBC) of Fluometacyl were determined on several gram-positive strains (Table 2) following EUCAST (European Committee on Antimicrobial susceptibility Testing) recommendations.
(§4) For MIC determination a single colony was resuspended and cultured in the appropriate bacteria-specific medium (TSB: Tryptic Soy Broth for S. aureus atcc 25904 and S. epidermidis and BHI: brain-heart infusion medium for all the other strains) overnight (O/N) in aerobic conditions (37° C. with 220 rpm shaking), next day a 1:100 inoculum was incubated in Mueller-Hinton broth (MHB) in aerobic conditions for 3 hr (OD600=0.08-0.1). A further inoculum, 1:300 dilution of the MHB culture, corresponding to 3×10^5 CFU/ml, was grown in presence or absence of different concentrations of Fluometacyl, 1% DMSO in MHB for 20 hr.

S. aureus ATCC 25904 = experiment: MIC determination (EUCAST, Mueller-Hinton broth); settings: Staphylococcus aureus, ATCC25904
Experimental: as §1, §2, §3, §4

[2] = system: methilcillin-resistant S. aureus (MRSA) ATCC BAA-1556; experiment: MIC determination (EUCAST, Mueller-Hinton broth); settings: Staphylococcus aureus
Experimental: as §1, §2, §3, §4

[3] = system: Staphylococcus epidermidis (ATCC 35984, also known as RP62A); experiment: MBC and MDK99.9 determination
Experimental: The Minimal Inhibitory Concentration (MIC) and the Minimal Bactericidal Concentration (MBC) of Triafluocyl were determined in Staphylococcus epidermidis (ATCC 35984, also known as RP62A) according to EUCAST (European Committee on Antimicrobial Susceptibility Testing) recommendations.
We have also determined the MBC, i.e. the concentration at which the liquid culture, when spread on TSA plates, will not produce any colony.
The Minimum Duration for killing 99.9% S. epidermidis (MDK99.9) by Triafluocyl, a tolerance metric according to the EUCAST, was 2 hours.
For MBC determination a 1:100 inoculum of an O/N culture (prepared like before) was incubated in aerobic conditions for 2 h in bacteria-specific medium. The culture was then challenged with Fluometacyl at the MIC concentration or higher. Bacterial growth was measured after different time intervals by counting the colony-forming units (CFU) after plating appropriate culture dilutions on bacteria-specific medium agar plates.

[4] = system: Escherichia coli (ATCC 8739); experiment: MIC determination with or without polymyxin B nonapeptide (PMBN); settings: for MIC: Escherichia coli, ATCC8739, in presence of 40 μg/ml PMBN; for inhibition of E. coli growth: taken alone, concentrations up to 15 μg/ml
Experimental: Determination of Minimal Inhibitory Concentration (MIC) and Minimal Bactericidal Concentration (MBC) of Triafluocyl (Cayman Chemical, Item No. 15425) in presence of polymyxin B nonapeptide (PMBN) (Sigma-Aldrich Merk, Item No. P2076) against Escherichia coli (ATCC 8739). […] A single colony grown on a Luria-Bertani Agar (LB) plate was resuspended and cultured in LB medium overnight (O/N) in aerobic conditions (37° C. with 220 rpm shaking), next day a 1:50 inoculum in Mueller-Hinton broth (MHB) is incubated in aerobic conditions for 1 h30 (OD=0.08-0.1) and an inoculum corresponding to 3×10^6 colony forming unit (CFU)/ml, is incubated in presence or absence of different concentrations of Triafluocyl in 1% DMSO with or without 40 μg/ml Polymyxin B nonapeptide (PMBN) for 18 hr in aerobic conditions (37° C. with 220 rpm shaking). Growth of Escherichia coli in 7 conditions depicted in FIG. 11 is evaluated by reading the OD of each culture at 600 nm (OD600) in a spectrophotometer (Victor 3-Perkin Elmer). Determination of Minimal Inhibitory Concentration (MIC) and Minimal Bactericidal Concentration (MBC) of Fluometacyl in presence of polymyxin B nonapeptide (PMBN) (Sigma-Aldrich Merk, Item No. P2076) against Escherichia coli (ATCC 8739). The Minimal Inhibitory Concentration (MIC) represents the concentration, in a liquid culture, at which there is no visible growth of bacteria (no pellet or cloudiness), i.e. ΔOD at 600 nm equal to zero wherein ΔOD is the difference between the resulting optical density (OD) with the molecule together with PMBN, and the optical density (OD) of the blank (blank is the medium alone). A single colony grown on a Luria-Bertani Agar (LB) plate is resuspended and cultured in LB medium overnight (O/N) in aerobic conditions (37° C. with 220 rpm shaking), next day a 1:50 inoculum in Mueller-Hinton broth (MHB) is incubated in aerobic conditions for 1 h30 (OD=0.08-0.1) and an inoculum corresponding to 3×10^6 colony forming unit (CFU)/ml is incubated in presence or absence of different concentrations of Fluometacyl in 1% DMSO (vehicle) with or without 40 μg/ml Polymyxin B nonapeptide (PMBN) for 18 hr in aerobic conditions (37° C. with 220 rpm shaking). Growth of bacteria in the 7 individual cultures (FIG. 12A) is evaluated by reading the OD of each culture at 600 nm (OD600) in a spectrophotometer (Victor 3-Perkin Elmer).

SMILES | MIC ([1]; S. aureus MU50 GISA) [µM] | MIC (S. aureus ATCC 25904) | MIC [2] | MBC ([3]; Staphylococcus epidermidis, ATCC35984, S. epidermidis, cut-off 99.9% reduction in CFU, read-out: MBC) [µM] | MIC [4] [mg/L] | inhibition of E. coli growth [4] | MIC ([1]; S. aureus Mu50 GISA) [mg/L] | MBC ([3]; S. epidermidis) [mg/L] | MDK 99.9 Time (h) needed to kill 99.9% of the started inoculum ([3]; S. epidermidis) [h] | MBC ([3]; Staphylococcus epidermidis, ATCC35984, S. epidermidis, read-out: MBC) [mg/L]
CCCSc1nc(N[C@@H]2C[C@H]2c2ccc(F)c(F)c2)c2nnn([C@@H]3C[C@H](O)[C@@H](O)[C@H]3O)c2n1 [Fluometacyl, (1S,2R,3S,4R)-4-[7-[[(1R,2S)-2-(3,4-Difluorophenyl)cyclopropyl]amino]-5-(propylthio)-3H-1,2,3-triazolo[4,5-d]pyrimidin-3-yl]-1,2,3-cyclopentanetriol] | 30 to 38 | 30 to 38 µM | 20 to 30 µM | 38 | 5 | unable to inhibit E. coli growth | – | – | – | –
CCCSc1nc(N[C@@H]2C[C@H]2c2ccc(F)c(F)c2)c2nnn([C@@H]3C[C@H](OCCO)[C@@H](O)[C@H]3O)c2n1 [Triafluocyl, (1S,2S,3R,5S)-3-[7-[(1R,2S)-2-(3,4-difluorophenyl)cyclopropylamino]-5-(propylthio)-3H-[1,2,3]-triazolo[4,5-d]pyrimidin-3-yl]-5-(2-hydroxyethoxy)-1,2-cyclopentanediol] | – | 20 mg/L | 15 mg/L | – | 5 | unable to inhibit E. coli growth | 20 | 20 | 2 | 17 ± 3
